Data taken from BigSolDB 2.1.

Conditions: in water

O=C1NC(=O)c2cc([N+](=O)[O-])ccc21
Conditions | solubility (mole fraction)
278.15 K | 0.000105
283.15 K | 0.000142
288.15 K | 0.000187
293.15 K | 0.000248
298.15 K | 0.000324
303.15 K | 0.000415
308.15 K | 0.000537
313.15 K | 0.000684
318.15 K | 0.00086
323.15 K | 0.00109
